According to PubChem BioAssay (NCI):
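Results reflect a 48-hour exposure of cells in 96-well plates to compound at five concentrations. TGI: concentration producing complete growth inhibition.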

Experiments:
Assay in all cases: growth of human tumour cells (NCI), 48 h
RXF 393 renal = system: RXF 393 renal
NCI-H23 lung = system: NCI-H23 lung
SK-MEL-2 melanoma = system: SK-MEL-2 melanoma
NCI-H226 lung = system: NCI-H226 lung
K-562 leukemia = system: K-562 leukemia
UACC-257 melanoma = system: UACC-257 melanoma
MOLT-4 leukemia = system: MOLT-4 leukemia
NCI/ADR-RES ovarian = system: NCI/ADR-RES ovarian
TK-10 renal = system: TK-10 renal
HOP-62 NSCLC = system: HOP-62 NSCLC
HT29 colon = system: HT29 colon
SK-MEL-5 melanoma = system: SK-MEL-5 melanoma
MDA-MB-231 breast = system: MDA-MB-231 breast
SF-268 CNS = system: SF-268 CNS
UACC-62 melanoma = system: UACC-62 melanoma
SN12C renal = system: SN12C renal
BT-549 breast = system: BT-549 breast
SK-OV-3 ovarian = system: SK-OV-3 ovarian
EKVX NSCLC = system: EKVX NSCLC
LOX IMVI melanoma = system: LOX IMVI melanoma
HL-60(TB) leukemia = system: HL-60(TB) leukemia
PC-3 prostate = system: PC-3 prostate
786-0 renal = system: 786-0 renal
ACHN renal = system: ACHN renal
HCT-116 colon = system: HCT-116 colon
HS 578T breast = system: HS 578T breast
M14 melanoma = system: M14 melanoma
RPMI-8226 leukemia = system: RPMI-8226 leukemia
OVCAR-8 ovarian = system: OVCAR-8 ovarian
DU-145 prostate = system: DU-145 prostate
OVCAR-3 ovarian = system: OVCAR-3 ovarian
SF-539 CNS = system: SF-539 CNS
SK-MEL-28 melanoma = system: SK-MEL-28 melanoma
MDA-MB-435 = system: MDA-MB-435
T-47D breast = system: T-47D breast
OVCAR-5 ovarian = system: OVCAR-5 ovarian
MCF7 breast = system: MCF7 breast
SNB-19 CNS = system: SNB-19 CNS
CCRF-CEM leukemia = system: CCRF-CEM leukemia
SW-620 colon = system: SW-620 colon
MDA-N = system: MDA-N
HCT-15 colon = system: HCT-15 colon
KM12 colon = system: KM12 colon
MALME-3M melanoma = system: MALME-3M melanoma
COLO 205 colon = system: COLO 205 colon
IGROV1 ovarian = system: IGROV1 ovarian
UO-31 renal = system: UO-31 renal
U251 CNS = system: U251 CNS
CAKI-1 renal = system: CAKI-1 renal
SF-295 CNS = system: SF-295 CNS
HCC-2998 colon = system: HCC-2998 colon
A549 NSCLC = system: A549 NSCLC
OVCAR-4 ovarian = system: OVCAR-4 ovarian
NCI-H522 lung = system: NCI-H522 lung
A498 renal = system: A498 renal
NCI-H460 lung = system: NCI-H460 lung
HOP-92 NSCLC = system: HOP-92 NSCLC
SR leukemia = system: SR leukemia

COc1ccc(/C=C2\CCC(C)c3c2nc(N)c(C#N)c3-c2ccc(OC)c(OC)c2)cc1OC (stereo unspecified)
TGI (RXF 393 renal): > 100 µM | TGI (NCI-H23 lung): > 100 µM | TGI (SK-MEL-2 melanoma): > 100 µM | TGI (NCI-H226 lung): > 100 µM | TGI (K-562 leukemia): > 100 µM | TGI (UACC-257 melanoma): 75.5 µM | TGI (MOLT-4 leukemia): > 100 µM | TGI (NCI/ADR-RES ovarian): > 100 µM | TGI (TK-10 renal): > 100 µM | TGI (HOP-62 NSCLC): 9.95 µM | TGI (HT29 colon): > 100 µM | TGI (SK-MEL-5 melanoma): > 100 µM | TGI (MDA-MB-231 breast): > 100 µM | TGI (SF-268 CNS): > 100 µM | TGI (UACC-62 melanoma): > 100 µM | TGI (SN12C renal): > 100 µM | TGI (BT-549 breast): > 100 µM | TGI (SK-OV-3 ovarian): > 100 µM | TGI (EKVX NSCLC): 8.53 µM | TGI (LOX IMVI melanoma): > 100 µM | TGI (HL-60(TB) leukemia): > 100 µM | TGI (PC-3 prostate): > 100 µM | TGI (786-0 renal): > 100 µM | TGI (ACHN renal): > 100 µM | TGI (HCT-116 colon): > 100 µM | TGI (HS 578T breast): > 100 µM | TGI (M14 melanoma): > 100 µM | TGI (RPMI-8226 leukemia): > 100 µM | TGI (OVCAR-8 ovarian): > 100 µM | TGI (DU-145 prostate): > 100 µM | TGI (OVCAR-3 ovarian): > 100 µM | TGI (SF-539 CNS): > 100 µM | TGI (SK-MEL-28 melanoma): > 100 µM | TGI (MDA-MB-435): > 100 µM | TGI (T-47D breast): 6.38 µM | TGI (OVCAR-5 ovarian): > 100 µM | TGI (MCF7 breast): > 100 µM | TGI (SNB-19 CNS): > 100 µM | TGI (CCRF-CEM leukemia): > 100 µM | TGI (SW-620 colon): > 100 µM | TGI (MDA-N): > 100 µM | TGI (HCT-15 colon): > 100 µM | TGI (KM12 colon): > 100 µM | TGI (MALME-3M melanoma): > 100 µM | TGI (COLO 205 colon): 73.1 µM | TGI (IGROV1 ovarian): > 100 µM | TGI (UO-31 renal): > 100 µM | TGI (U251 CNS): > 100 µM | TGI (CAKI-1 renal): > 100 µM | TGI (SF-295 CNS): > 100 µM

Cc1ccc2c(n1)NC(=O)C(Cc1ccccc1)(N=[N+]=[N-])C2=O (stereo unspecified)
TGI (RXF 393 renal): > 100 µM | TGI (NCI-H23 lung): > 100 µM | TGI (HCC-2998 colon): > 100 µM | TGI (NCI-H226 lung): > 100 µM | TGI (K-562 leukemia): > 100 µM | TGI (UACC-257 melanoma): > 100 µM | TGI (A549 NSCLC): > 100 µM | TGI (MOLT-4 leukemia): > 100 µM | TGI (NCI/ADR-RES ovarian): > 100 µM | TGI (TK-10 renal): > 100 µM | TGI (HOP-62 NSCLC): > 100 µM | TGI (HT29 colon): > 100 µM | TGI (OVCAR-4 ovarian): > 100 µM | TGI (MDA-MB-231 breast): > 100 µM | TGI (SF-268 CNS): > 100 µM | TGI (UACC-62 melanoma): > 100 µM | TGI (NCI-H522 lung): > 100 µM | TGI (SN12C renal): > 100 µM | TGI (BT-549 breast): > 100 µM | TGI (SK-OV-3 ovarian): > 100 µM | TGI (PC-3 prostate): > 100 µM | TGI (786-0 renal): > 100 µM | TGI (ACHN renal): > 100 µM | TGI (HCT-116 colon): > 100 µM | TGI (M14 melanoma): > 100 µM | TGI (OVCAR-8 ovarian): > 100 µM | TGI (DU-145 prostate): > 100 µM | TGI (OVCAR-3 ovarian): > 100 µM | TGI (SF-539 CNS): > 100 µM | TGI (SK-MEL-28 melanoma): > 100 µM | TGI (MDA-MB-435): > 100 µM | TGI (A498 renal): > 100 µM | TGI (NCI-H460 lung): > 100 µM | TGI (T-47D breast): > 100 µM | TGI (OVCAR-5 ovarian): > 100 µM | TGI (MCF7 breast): > 100 µM | TGI (SNB-19 CNS): > 100 µM | TGI (HOP-92 NSCLC): > 100 µM | TGI (SR leukemia): > 100 µM | TGI (CCRF-CEM leukemia): > 100 µM | TGI (SW-620 colon): > 100 µM | TGI (MDA-N): > 100 µM | TGI (HCT-15 colon): > 100 µM | TGI (KM12 colon): > 100 µM | TGI (MALME-3M melanoma): > 100 µM | TGI (COLO 205 colon): > 100 µM | TGI (IGROV1 ovarian): > 100 µM | TGI (UO-31 renal): > 100 µM | TGI (U251 CNS): > 100 µM | TGI (CAKI-1 renal): > 100 µM | TGI (SF-295 CNS): > 100 µM
